Experimental data taken from patent US10646496B2, “Joint application of statin and adrenocortical hormone for treating chronic subdural hematoma” (priority 2016, dated 2020).
Where “and” joins values, the source holds several entries; their conditions need not be identical. Identical values can stand only once. Like-named read-outs stand apart in the source and are kept apart here.

Experiments:
[1] = tested on: VEGF, TGF-β, MMP-9 and Ang-1/2; assay: Rat subdural hematoma model: factor expression in hematoma capsule/cavity (real-time PCR, ELISA); format: in vivo
Excerpt: In FIG. 1 to FIG. 9, “#” denotes a statistically significant difference in the small-dose group and the large-dose group as compared with the control group; and “*” denotes a statistically significant difference between the small-dose group and the large-dose group.

[2] = tested on: chronic subdural hematoma; conditions: for Hematoma amount in the fourth week, average value: treatment for one month, conservatively successful patients
[3] = tested on: VEGF, TGF-β, MMP-9 and Ang-1/2; conditions: small dose of atorvastatin, recent animal experiments; cited from earlier work
[4] = large-dose group 8 mg/kg/day oral, 2 days
[5] = large-dose group 8 mg/kg/day, 7 days after the operation
[6] = small-dose group 3 mg/kg/day oral, 2 days
[7] = small-dose group 3 mg/kg/day, 7 days after the operation, vs control and large-dose group
[8] = large-dose 5 mg/kg/day, 28 rats
[9] = small-dose 3 mg/kg/day, 30 rats

SMILES: CC(C)c1c(C(=O)Nc2ccccc2)c(-c2ccccc2)c(-c2ccc(F)cc2)n1CC[C@@H](O)C[C@@H](O)CC(=O)O [atorvastatin]
- expression of MMP-9 [1, 4]: significantly higher
- expression of TGFβ [1, 4]: significantly higher
- expression of VEGF [1, 4]: significantly higher
- expression of Ang2 [1, 5]: high expressions
- expression of MMP-9 [1, 5]: high expressions
- expression of TGF-β [1, 5]: high expressions
- expression of VEGF [1, 5]: high expressions
- mRNA expression of hematoma capsule Ang1 [1, 6]: significantly higher
- mRNA expression of hematoma capsule VEGF [1, 6]: significantly higher
- Ang1 [1, 7]: significantly higher
- expression level of MMP-9 [1, 7]: significantly lower
- expression level of VEGF [1, 7]: significantly lower
- Injury infection (subcutaneous hematoma; [8]): 4
- Rats died in the treatment (subcutaneous hematoma; [8]): 7
- death rate (subcutaneous hematoma; large-dose group compared with small-dose atorvastatin group): significantly improved
- hormone-caused complications (subcutaneous hematoma; rat, in vivo): significantly increased
- Poor condition (subcutaneous hematoma; rat, in vivo, 3 mg/kg/day): 3
- Poor condition (subcutaneous hematoma; rat, in vivo, 5 mg/kg/day): 6
- Injury infection (subcutaneous hematoma; [9]): 1
- Rats died in the treatment (subcutaneous hematoma; [9]): 2
- Hematoma amount in the fourth week, average value ([2]; atorvastatin alone): 28.29 ± 29.47 mL and 28.29 mL
- local TNF-α and IL-6 gene and protein levels in the hematoma capsule [3]: significantly reduce

SMILES: C[C@@H]1C[C@H]2[C@@H]3CCC4=CC(=O)C=C[C@]4(C)[C@@]3(F)[C@@H](O)C[C@]2(C)[C@@]1(O)C(=O)CO [dexamethasone]
- Reduced hematoma amount in the fourth week, average value ([2]; small dose dexamethasone alone): 24.71 mL
- patients with no therapeutic effect, transferred to surgical treatment ([2]; small dose dexamethasone alone, among the 15 patients): 5 patients
- average hematoma absorption rate ([2]; small dose dexamethasone alone, fourth week / one month after administration): 35%
- Hematoma amount in the fourth week ([2]; small dose dexamethasone alone, oral, 0.75 mg 3x/day wk 1, 2x/day wk 2-3, 1x/day wk 4, individual patients (15)): 40.95 ml and 80.00 ml (2×) and 36.30 ml and 32.73 ml and 96.53 ml and 39.88 ml and 30.25 ml and 35.00 ml and 37.00 ml
- Hematoma amount in the fourth week, average value ([2]; small dose dexamethasone alone): 50.86 ± 24.52 mL and 50.86 mL
- Reduced hematoma amount in the fourth week ([2]; small dose dexamethasone alone, individual patients (15)): 20.93 mL and 25.00 mL and 39.64 mL and 23.90 mL and 8.13 mL and 38.43 mL and 24.08 mL and 36.40 mL and 13.60 mL and 17.00 mL
